US20100010049A1, “Novel Tyrosinase inhibitors and pharmaceutical/cosmetic applications thereof” (GALDERMA RESEARCH & DEVELOPMENT, priority 2006, published 2010)
pIC50: −log10 of the molar value.

Biological target: T1, tyrosinase (Mus musculus, UniProt P11344)
T1 construct: the supernatant obtained constitutes the cell lysate used as tyrosinase source in the enzymatic assay; endogenous in cells; host or cells: B16F1 murine melanoma cells, cultured with alpha-MSH; detergent lysate supernatant
T1 sequence (P11344 19-533): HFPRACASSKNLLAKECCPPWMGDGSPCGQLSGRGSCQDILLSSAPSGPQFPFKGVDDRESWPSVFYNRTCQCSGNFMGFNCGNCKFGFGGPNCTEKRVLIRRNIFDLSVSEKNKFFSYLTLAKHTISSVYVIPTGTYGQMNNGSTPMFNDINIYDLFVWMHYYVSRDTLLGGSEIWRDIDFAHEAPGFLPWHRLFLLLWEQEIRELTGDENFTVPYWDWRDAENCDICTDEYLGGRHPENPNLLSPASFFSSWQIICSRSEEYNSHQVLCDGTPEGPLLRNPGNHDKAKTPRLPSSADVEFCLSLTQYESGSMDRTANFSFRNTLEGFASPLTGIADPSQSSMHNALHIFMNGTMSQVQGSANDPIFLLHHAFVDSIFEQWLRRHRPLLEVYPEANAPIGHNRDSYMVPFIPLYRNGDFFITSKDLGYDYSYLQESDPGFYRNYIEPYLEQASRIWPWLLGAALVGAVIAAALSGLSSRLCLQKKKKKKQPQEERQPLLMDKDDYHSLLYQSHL
Experiment: Tyrosinase activity inhibition assay (B16F1 cell lysate, L-tyrosine substrate, MBTH, absorbance at 520 nm)
Assay type: biochemical
Settings: lysate of B16F1 cells (murine melanoma line) as tyrosinase source, 37° C., reading at 520 nm after 6 hours
Method: The activity of the inhibitors is measured starting from a lysate of B16F1 cells (murine melanoma line). In the presence of the L-tyrosine substrate, the tyrosinase present in these cells catalyses the hydroxylation of L-tyrosine to give L-DOPA and then the oxidation of the L-DOPA to give dopaquinone. In the presence of MBTH (3-methyl-2-benzothiazolinone hydrazone), the dopaquinone is trapped so as to form a pink complex which absorbs at 520 nm.
The B16F1 cells are cultured in DMEM medium+10% foetal calf serum+10^−9 M α-MSH for 4 days at 37° C. under 7% CO2. They are treated with trypsin, washed with PBS, counted and pelleted. The pellet is taken up at 10^7 cells/ml in lysis buffer (10 mM sodium phosphate, pH 6.8−1% Igepal) and the suspension is treated with ultrasound for 10 seconds. After centrifugation for 30 minutes at 4000 rpm, the supernatant obtained constitutes the cell lysate used as tyrosinase source in the enzymatic assay.
The assays are carried out in duplicate in 384-well plates in a total volume of 50 μl. Each well contains: • 40 μl of solution containing 1.25 mM L-tyrosine, 6.25 μM L-DOPA (cofactor) and 3.75 mM MBTH in buffer B (62.25 mM sodium phosphate, pH 6.8-2.5% dimethylformamide), • 5 μl of inhibitor diluted in DMSO, • 5 μl of cell lysate diluted to ½ in 50 mM Tris HCl buffer, pH 7.5.
The plate is incubated at 37° C. and a spectrophotometric reading is carried out at 520 nm after incubating for 6 hours. In order to avoid any possible absorption of the products, the system employs corrected absorbance (absorbance at time 6 h—absorbance at time zero).
The inhibitors are assayed in terms of dose-response so as to calculate an IC50 (dose which inhibits 50% of the enzymatic activity).
Several internal controls are added to each experiment: • control for 100% activity: the 5 μl of inhibitor are replaced with 5 μl of DMSO, • control for 50% activity: the 5 μl of inhibitor are replaced with 5 μl of phenylthiourea at 300 μM in DMSO, • control for 0% activity: the L-tyrosine substrate is replaced with buffer B.
With `COn1ccn(C)c1=S` [Compound 3, 1-methoxy-3-methyl-1,3-dihydroimidazole-2-thione] the pIC50 was 4.14. With `On1c(-c2ccccc2)c[nH]c1=S` [Compound 4, 1-hydroxy-5-phenyl-1,3-dihydroimidazole-2-thione] the pIC50 was 6.05. For `On1c(-c2cccs2)c[nH]c1=S` [Compound 8, 1-hydroxy-5-(thiophen-2-yl)-1,3-dihydroimidazole-2-thione], the pIC50 was 5.43. In the case of `COc1ccc(-c2c[nH]c(=S)n2O)cc1` [Compound 6, 1-hydroxy-5-(4-methoxyphenyl)-1,3-dihydroimidazole-2-thione], the pIC50 was 6.09.

Tested on: not given
Experiment: not given
Settings: not given
`COn1cc[nH]c1=S` [Compound 1, 1-methoxy-1,3-dihydroimidazole-2-thione] showed a melting point of 111 to 111.8 °C. Compound `COn1ccn(C)c1=S` [Compound 3, 1-methoxy-3-methyl-1,3-dihydroimidazole-2-thione] has a melting point of 56.9 to 57.5 °C. `On1c(-c2cccs2)c[nH]c1=S` [Compound 8, 1-hydroxy-5-(thiophen-2-yl)-1,3-dihydroimidazole-2-thione] showed a melting point of 183.6 to 184.8 °C. In the case of `COc1ccc(-c2c[nH]c(=S)n2O)cc1` [Compound 6, 1-hydroxy-5-(4-methoxyphenyl)-1,3-dihydroimidazole-2-thione], the melting point was 150 °C. Work on `S=c1[nH]ccn1OCc1cccnc1` [Compound 2, 1-(pyridin-3-ylmethoxy)-1,3-dihydroimidazole-2-thione] yielded a melting point of 128 to 129 °C. Work on `On1cc(-c2ccccc2)[nH]c1=S` [Compound 5, 1-hydroxy-4-phenyl-1,3-dihydroimidazole-2-thione] yielded a melting point of 196.3 °C. `COc1ccc(-c2cn(O)c(=S)[nH]2)cc1` [Compound 7, 1-hydroxy-4-(4-methoxyphenyl)-1,3-dihydroimidazole-2-thione] gave a melting point of 160 °C.
